Results taken from patent US5879716A, “Methods and compositions for topical delivery of benzoyl peroxide” (priority 1993, dated 1999).
Where two headings read alike, the source gives them in different places.

Key:
[1] = human skin specimens used within 7 to 10 days; cited from earlier work
[2] = cited from earlier work
[3] = Solubility of benzoyl peroxide; assay type: physicochemical

solution concentration obtainable ([3]; acetone and isopropanol): up to 10 % by weight
solubility of the drug in the formulation ([3]; formulations F and G): very low solubility
solubility ([3]; water or normal saline solution): exceedingly low solubility
Structure (SMILES): O=C(OOC(=O)c1ccccc1)c1ccccc1 [Benzoyl peroxide, benzoyl peroxide]
metabolism during skin absorption [1]: metabolized to benzoic acid and accumulated as such in the receptor fluid
solubility ([2]; alcohols): slightly soluble in alcohols
solubility ([2]; organic solvents): soluble in nearly all organic solvents
solubility ([2]; organic solvents, listed as benzoyl peroxide): limited solubility in most solvents
solubility ([2]; water): slightly soluble in water
